Test results published in patent US9289490B2, “Combinations and uses thereof” (MORPHOSYS AG, priority 2010, dated 2016).
“And” between values parts separate entries of the source, which are not always exact repeats. Identical values can stand only once.

Legend:
AMO-1 cells [1] = experiment: CD38 surface expression after lenalidomide (FACS, ABC); format: cell-based, human
Procedure: (§1) Cells were stained with a directly labelled QuantiBRITE™ CD38-PE antibody (Becton Dickinson GmbH, Clone HB7, CAT #342371), which is specific for CD38. The “Antibodies Bound Per Cell” (ABC's) were determined using the flow cytometry based QuantiBRITE™ system, which measures the geometric mean (GeoMean) per cell. Conversion of measured GeoMean into correlating ABC amount per cell was done with GraphPad PRISM™ software. The ABC values are assumed to correlate with the number of CD38 molecules per cell, since QuantiBRITE™ CD38-PE carries one PE molecule per antibody.
(§2) To determine whether lenalidomide induced upregulation of CD38 in the multiple myeloma and plasmacytoma cells of Table 1, the cell lines were incubated with 100 μM lenalidomide and, subsequently, CD38 surface expression was analyzed by FACS.
(§3) Around 2×10^5 cells of each of the cells lines of Table 1 were plated on 48-well dishes in standard RPMI medium. Lenalidomide, purchased from Selleck Chemicals (LLC S1029, CAS No. 191732-6; Batch: S10290), was applied to respective wells to a final concentration of 100 μM in a volume of 750 μl containing 20% FCS and 0.1% DMSO.
(§4) Cells were resuspended by gentle pipetting and 250 μl of cell suspension per incubation period were transferred into a well of a 96-well round bottom plate. Cells were washed by centrifugation for 1 min at 700×g and were resuspended in 150 μl of cold FACS buffer (1×PBS supplemented with 3% FCS). Cells were again pelleted down by centrifugation and were resuspended in 150 μl of FACS buffer containing 15 μg/ml of anti-CD38 antibody (MOR202, IgG1) or control antibody MOR03207 and incubated for 1 h on ice. Cells were then washed 3 times by centrifugation and were resuspended in FACS buffer supplemented with PE-labeled secondary antibody (PE-Fab2 fragment, goat anti-human IgG. Fc-fragment specific; Jackson Immuno Research; CAT: 109-116-098; Lot: 80938). Cells were incubated for 45 minutes on ice, then washed 3 times by centrifugation and resuspended in FACS buffer. The cell suspensions were then subjected to FACS analysis using a FACS array device.
(§5) Additionally, the affect of lenalidomide on the CD38 expression of AMO-1 cells is shown in FIG. 1, and the affect of lenalidomide on the CD38 expression of NCI-H929 cells is shown in FIG. 5.

LP-1 cells = experiment: as above; format: cell-based, human
Procedure: as §1, §2, §3, §4, §5

NCI-H929 cells [2] = experiment: as above; format: cell-based, human
Procedure: as §1, §2, §3, §4, §5

OPM-2 cells = experiment: as above; format: cell-based, human
Procedure: as §1, §2, §3, §4, §5

RPMI-8226 cells = experiment: as above; format: cell-based, human
Procedure: as §1, §2, §3, §4, §5

[3] = system: Plasmacytoma, Malignant Plasma Cells; experiment: as above; format: cell-based, human
Procedure: Bone marrow samples (4-10 ml aspirate) from multiple myeloma patients and extramedullary tumor plasmacytoma samples were obtained after informed consent from the Klinikum rechts der Isar (“KrdI”) (Munich, Germany). Samples were subjected to centrifugation, and further plasma cell enrichment was achieved via magnetic-activated cell sorting.
as §1, §2, §3
Cells were resuspended by gentle pipetting and 250 μl of cell suspension per incubation period were transferred into a well of a 96-well round bottom plate. Cells were washed by centrifugation for 1 min at 700×g and were resuspended in 150 μl of cold FACS buffer (1×PBS supplemented with 3% FCS). Cells were again pelleted down by centrifugation and were resuspended in 150 μl of FACS buffer containing 15 μg/ml of anti-CD38 antibody (MOR202, IgG1) or control antibody MOR03207 and incubated for 1 h on ice. […]

AMO-1 cells [4] = experiment: Cell proliferation, XTT-based assay; design: species or system human
Procedure: (§6) Cells were collected and distributed in 96-well plates with 5000 cells per well.
(§7) After incubation, plates were analyzed for cell proliferation in a quantitative colorimietric XTT-based assay using the cell proliferation kit II (ROCHE, Cell Proliferation Kit II, Cat. No.: 11465015001). For subsequent measurement plates were subjected to Tecan Genios Reader and absorbance at 492 nm was detected.
(§8) Increasing amounts of Bortezomib (Velcade®, Lot: No.: #9AZSY00) were applied to AMO-1, LP-1, NCI-H929 and RPMI-8226 cells and incubated for 24 h, 48 h and 72 h. After incubation, period plates were analyzed for cell proliferation in a quantitative colorimietric XTT-based assay using the cell proliferation kit II (ROCHE, Cell Proliferation Kit II, Cat. No.: 11465015001). For subsequent measurement, plates were subjected to Tecan Genios Reader and absorbance at 492 nm was detected.

[5] = system: NCI-H929 human multiple myeloma cells; experiment: NCI-H929 bone lysis SCID mouse MM model, MOR202 and LEN (MicroCT); format: in vivo, SCID mice
Procedure: 63 SCID mice were inoculated on Day (−7) orthotopically into the right tibia with 2.5×10^6 NCI-H929 MM cells (in 5 μL) in order to induce bone lysis. Lenalidomide (Groups A and D) and Vehicle Control (Group C) treatments started on Day (−1). MOR202 treatments (Groups B and D) started on Day 0. Treatment continued for 6 weeks.
MicroCT Scan was used to assess bone lysis and included […] analysis comprising Total Bone Volume (TBV), Trabecular Bone Volume (Tb.BV), Trabecular Pattern Factor (Tb.Pf) and Structure Model Index (SMI). Table 10 defines each of these parameters.

RAMOS cells = experiment: RAMOS non-Hodgkin tumor SCID mouse survival model, MOR202 and lenalidomide; format: in vivo, SCID mice
Procedure: Sixty-eight female SCID mice were pre-treated with Cyclophosphamide (75 mg/kg, i.p., twice daily) for two days prior to RAMOS cell inoculation (Day −5 and −4). On the day of inoculation (Day −3), all mice were inoculated with 1×10^6 RAMOS cells each intravenously into the tail vein. Sixty-four of the mice were randomised by body weight into eight groups of eight.
The study continued for 98 days and the measured endpoint was survival.

NCI-H929 cells [6] = settings: 5 µM
Procedure: (§9) PBMC's were isolated by density gradient centrifugation of freshly isolated human blood. Isolated blood from different donors were layered on a defined volume of Biocoll (Biochrome AG; CAT No.:L6115; LOT No.:1050T) in a Falcon tube and centrifuged at 380 g. The PBMCs were isolated and supplemented with RPMI medium.
(§10) Cell suspensions were further incubated for 4 h at 37° C. To detect dead AMO-1 cells, cell suspensions were challenged with propidium iodide (PI) and subsequently analyzed in flow cytometry. Target cells were separated via gating of CalceinAM positive cell populations, and cells killed via ADCC were quantified.
(§11) Single and combination doses of 5 μM LEN and 15 μg/ml of MOR03207 and 0.2 or 0.07 μg/ml MOR202 were used.
(§12) Single and combination doses of 5 μM LEN and 15 μg/ml of MOR03207 and 0.2* or 0.07 μg/m MOR202 were used.

NCI-H929 cells [7] = experiment: Cell proliferation, XTT-based assay; settings: NCI-H929 cells
Procedure: as §6, §7, §8

NCI-H929 cells [8] = experiment: ADCC with human PBMCs, flow cytometry (CalceinAM/PI)
Procedure: as §9, §10, §11, §12

[9] = LEN 50 mg/kg p.o. once daily, MOR202 3 mg/kg i.p. 3 times weekly, 6 weeks, lower = less bone lysis
[10] = group mean of 10 mice, LEN 50 mg/kg p.o., MOR202 3 mg/kg i.p., 6 weeks

Nc1cccc2c1CN(C1CCC(=O)NC1=O)C2=O (stereo not drawn) [LEN, lenalidomide]
Absolute number of ABC (CD38 expression) LEN (extrapolated) (AMO-1 cells [1]; 100 μM lenalidomide): 115,000 ABC | Absolute number of ABC (CD38 expression) INCREASE (AMO-1 cells [1]; 100 μM lenalidomide vs basal): 90,000 ABC | Fold increase (CD38 expression) (AMO-1 cells [1]; 100 μM lenalidomide vs basal): 4.5 fold | Absolute number of ABC (CD38 expression) LEN (extrapolated) (LP-1 cells; 100 μM lenalidomide): 162,500 ABC | Effect (on CD38 expression) (LP-1 cells; 100 μM lenalidomide): No | Absolute number of ABC (CD38 expression) INCREASE (LP-1 cells; 100 μM lenalidomide vs basal): 37,500 ABC | Fold increase (CD38 expression) (LP-1 cells; 100 μM lenalidomide vs basal): 1.3 fold | Absolute number of ABC (CD38 expression) LEN (extrapolated) (NCI-H929 cells [2]; 100 μM lenalidomide): 390,000 ABC | Effect (on CD38 expression) (NCI-H929 cells [2]; 100 μM lenalidomide): Weak | Absolute number of ABC (CD38 expression) INCREASE (NCI-H929 cells [2]; 100 μM lenalidomide vs basal): 195,000 ABC | Fold increase (CD38 expression) (NCI-H929 cells [2]; 100 μM lenalidomide vs basal): 2.0 fold | Absolute number of ABC (CD38 expression) LEN (extrapolated) (OPM-2 cells; 100 μM lenalidomide): 98,800 ABC | Absolute number of ABC (CD38 expression) INCREASE (OPM-2 cells; 100 μM lenalidomide vs basal): 60,800 ABC | Fold increase (CD38 expression) (OPM-2 cells; 100 μM lenalidomide vs basal): 2.6 fold | Absolute number of ABC (CD38 expression) LEN (extrapolated) (RPMI-8226 cells; 100 μM lenalidomide): 871,000 ABC | Effect (on CD38 expression) (RPMI-8226 cells; 100 μM lenalidomide): Weak | Absolute number of ABC (CD38 expression) INCREASE (RPMI-8226 cells; 100 μM lenalidomide vs basal): 199,000 ABC | Fold increase (CD38 expression) (RPMI-8226 cells; 100 μM lenalidomide vs basal): 1.3 fold | Absolute number of ABC (CD38 expression) LEN (extrapolated) ([3]; 100 μM lenalidomide): 69,000 ABC | Absolute number of ABC (CD38 expression) INCREASE ([3]; 100 μM lenalidomide vs basal): 39,000 ABC | Fold increase (CD38 expression) ([3]; 100 μM lenalidomide vs basal): 2.3 fold | Cytotoxicity of lenalidomide alone (in words) (AMO-1 cells [4]): low cytotoxity against AMO-1 cells | Structure Model Index (SMI), individual mouse [5, 9]: 2.679 and 2.667 and 2.335 and 2.560 and 2.086 and 2.619 and 2.562 and 2.592 and 2.547 and 3.125 | Trabecular Pattern Factor (Tb · Pf), individual mouse [5, 9]: 24.329 mm^−1 and 23.561 mm^−1 and 22.893 mm^−1 and 28.280 mm^−1 and 22.213 mm^−1 and 30.739 mm^−1 and 24.016 mm^−1 and 29.454 mm^−1 and 24.205 mm^−1 and 38.360 mm^−1 | Structure Model Index (SMI), Mean [5, 10]: 2.577 | Trabecular Pattern Factor (Tb · Pf), Mean [5, 10]: 26.805 mm^−1 | Reduction of bone lysis compared to vehicle control ([5]; non-inoculated tibia = 0%, vehicle = 100% bone lysis, MOR202 alone 12 mg/kg, LEN alone 50 mg/kg, combination 3 mg/kg MOR202 and 50 mg/kg LEN): 20% | Number of mice alive at study termination (day 98) (RAMOS cells; LEN 100 mg/kg (Table 14) p.o., MOR202 1 mg/kg i.v.): 0/7 | Day of death (post-inoculation) Mean (RAMOS cells; LEN 100 mg/kg (Table 14) p.o., MOR202 1 mg/kg i.v. twice weekly, study 98 days): 21.4 days | % ILS (based on median death day) (RAMOS cells; LEN 100 mg/kg (Table 14) p.o., MOR202 1 mg/kg i.v., vs vehicle control): 10% | Day of death (post-inoculation) Median (RAMOS cells; LEN 100 mg/kg (Table 14; Table 13: 50 mg/kg) p.o. once daily, MOR202 1 mg/kg i.v. twice weekly, study 98 days): 22 days | Normalized specific killing, fractional product combination set as 1 (Table 7b), Exp. 1 (NCI-H929 cells [6]): 0.67 | Normalized specific killing, fractional product combination set as 1 (Table 8b), Exp. 1 (NCI-H929 cells [6]): −0.10 | Inhibition of cell proliferation by lenalidomide alone (in words) (NCI-H929 cells [7]): significant effect on the proliferation of NCI-H929 cells | Inhibition of cell proliferation by lenalidomide alone (in words) (NCI-H929 cells [7]; listed as Lenalidomide): signficantly inhibited cell proliferation | Enhancement of MOR202 activity by LEN (in words) (NCI-H929 cells [8]; NCI-H929 cells, Fractional Product Concept and Chou et al., 6 out of 6 experiments each): synergistically enhanced MOR202 activity | % dead cells (raw data, Table 7a), Exp. 2 and 3 (NCI-H929 cells [8]; PBMCs and NCI-H929 cells treated with LEN before MOR202, LEN 5 μM, MOR202 0.07 μg/ml, MOR03207 15 μg/ml): 39.92 % dead cells and 41.92 % dead cells | % dead cells (raw data, Table 7a), Exp. 1 (NCI-H929 cells [8]; PBMCs and NCI-H929 cells treated with LEN before MOR202, LEN 5 μM, MOR202 0.2 μg/ml (*), MOR03207 15 μg/ml): 38.65 % dead cells | Normalized specific killing, AVERAGE (Table 7b) (NCI-H929 cells [8]; PBMCs and NCI-H929 cells treated with LEN, LEN 5 μM, MOR202 0.2 or 0.07 μg/ml, average of 3 experiments): 0.63 | % dead cells (raw data, Table 8a), Exp. 2 and 3 (NCI-H929 cells [8]; only effector cells treated with LEN before MOR202, LEN 5 μM, MOR202 0.07 μg/ml, MOR03207 15 μg/ml): 26.27 % dead cells and 25.72 % dead cells | % dead cells (raw data, Table 8a), Exp. 1 (NCI-H929 cells [8]; only effector cells treated with LEN before MOR202, LEN 5 μM, MOR202 0.2 μg/ml (*), MOR03207 15 μg/ml): 17.50 % dead cells | Normalized specific killing, AVERAGE (Table 8b) (NCI-H929 cells [8]; only effector cells treated with LEN, LEN 5 μM, MOR202 0.2 or 0.07 μg/ml, average of 3 experiments): 0.02
